Results from patent publication US20250387398A1, “NEW HIGH-EFFICIENCY ANTIMICROBIAL COMPOSITION” (CM4CURE S.A., priority 2023, published 2025).
Like-named read-outs stand apart in the source and are kept apart here. One block for each compound: values may come before it.

How the values were obtained:
[1] = tested on: Staphylococcus aureus (MRSA, ATCC 6538); test: Real-time microcalorimetric measurement of metabolic activity (Calscreener); format: cell-based
Protocol: Staphylococcus aureus (MRSA, ATCC 6538) was grown overnight in TSB (tryptic soy broth) medium, before being diluted 1×10^6 fold in fresh TSB. Subsequently […] aliquots of diluted bacteria suspensions were respectively supplemented with 1 and 2 mg/L of chlorhexidine (digluconate solution, 20% in H2O, Merck). […] The aqueous solution of chlorhexidine and the ethanol-based solution of triafluocyl were kept refrigerated. Chlorhexidine, triafluocyl or both, and ethanol as a vehicle were added to the bacterial suspensions to obtain the given concentrations followed by a brief vortexing. Bacterial aliquots were then distributed in the dedicated non-activated inserts of a 48-well plate and grown for 24 h or more under static conditions at 37 C using Calscreener technology to measure bacterial growth and metabolic activity in Real-Time as described in https://cordis.europa.eu/project/id/784514.
In FIG. 3, one sees the real-time microcalorimetric measurements of bacterial metabolic activity expressed as the heat flow, providing S. aureus as an example of Gram-positive bacteria strain. The line A stands for control bacteria with a vehicle at 0.66% ethanol in TSB, whereas the line B represents bacteria treated respectively with 1 mg/L of triafluocyl; C—1 mg/L of chlorhexidine; D—2 mg/L of chlorhexidine; and E—1 mg/L of chlorhexidine with 1 mg/L of triafluocyl.
Staphylococcus aureus (MRSA, ATCC 6538) was grown overnight in TSB (tryptic soy broth) medium, before being diluted 1×10^6 fold in fresh TSB. Subsequently […] aliquots of diluted bacteria suspensions were respectively supplemented with 0.25, 0.5 and 1 μg/mL of chlorhexidine (digluconate solution, 20% in H2O, Merck) or alexidine dihydrochloride (stock solution of 3 mg/mL in ethanol, Merck).
The aqueous solution of chlorhexidine and the ethanol-based solution of alexidine were kept refrigerated. Chlorhexidine, alexidine, and ethanol as a vehicle were added to the bacterial suspensions to obtain the given concentrations followed by a brief vortexing. Bacterial aliquots were then distributed in the dedicated non-activated inserts of a 48-well plate and grown for 24 h or more under static conditions at 37 C using Calscreener technology to measure bacterial growth and metabolic activity in Real-Time as described in https://cordis.europa.eu/project/id/784514.
In FIG. 4 the real-time microcalorimetric measurements of bacterial metabolic activity is expressed as the heat flow, providing S. aureus as an example. The line A stands for control bacteria with a vehicle (ethanol), whereas the line B represents bacteria treated respectively with 0.25 mg/mL of chlorhexidine; C—0.5 mg/mL of chlorhexidine; D—1 mg/mL of chlorhexidine; E—0.25 mg/mL of alexidine; F −0.5 mg/mL of alexidine; and G—1 mg/mL of alexidine.
Staphylococcus aureus (MRSA, ATCC 6538) was grown overnight in TSB (tryptic soy broth) medium, before being diluted 1×10^6 fold in fresh TSB. Subsequently […] aliquots of diluted bacteria suspensions were respectively supplemented with […] of alexidine dihydrochloride (stock solution of 3 mg/mL in ethanol, Merck). […] The ethanol-based solutions of alexidine and fluometacyl were stored at −20° C. […]
In FIG. 5 real-time microcalorimetric measurements of bacterial metabolic activity is expressed as the heat flow, providing S. aureus as an example. […]

[2] = tested on: Pseudomonas aeruginosa (ATCC 15442); test: as above; format: cell-based
Protocol: Pseudomonas aeruginosa (ATCC 15442) was grown overnight in TSB (tryptic soy broth) medium, before being diluted 1×10^7 fold in fresh TSB. Subsequently […] aliquots of diluted bacteria suspensions were respectively supplemented with 1, 2, 4, 6, 12 and 24 mg/L of chlorhexidine (digluconate solution, 20% in H2O, Merck). The aqueous solution of chlorhexidine was kept refrigerated according to the manufacturer's technical sheet. Chlorhexidine or mQH2O as a vehicle were added to the bacterial suspensions to obtain the given concentrations followed by a brief vortexing. Bacterial aliquots were then distributed in the dedicated non-activated inserts of a 48-well plate and grown for 24 h or more under static conditions at 37 C using Calscreener technology to measure bacterial growth and metabolic activity in Real-Time as described in https://cordis.europa.eu/project/id/784514.
For the study of the combination of chlorhexidine and triafluocyl aforementioned diluted bacterial suspensions were supplemented with either chlorhexidine alone (1, 2, 4, 6, 12 mg/L) or mixed with triafluocyl (20 mg/L, Polpharma). Triafluocyl was stored in absolute ethanol in the refrigerator at a concentration of 3 mg/mL. […]
FIG. 1, illustrates a real-time microcalorimetric measurements of bacterial metabolic activity expressed as the heat flow, providing P. aeruginosa as an example. […]

Streptococcus mutans = settings: cited from earlier work
Porphyromonas gingivalis = settings: cited from earlier work
[3] = background, cited from earlier work
Candida krusei = settings: cited from earlier work
[4] = tested on: Staphylococcus aureus MRSA; settings: cited from earlier work
Candida tropicalis = settings: cited from earlier work
[5] = tested on: Lactobacillus acidophilus; settings: cited from earlier work
Fusobacterium nucleatum = settings: cited from earlier work
[6] = tested on: Pseudomonas aeruginosa (PA); test: MIC in monotherapy and in combination (ISO standard 20776-1); format: cell-based
Source text: (§1) Summary Of MIC values for Fluometacyl (FLC)+Chlorhexidine (CHX) Tested Against MRSA, Enterococcusfaecalis (VRE), Pseudomonas aeruginosa (PA) and Candida albicans (CA).
(§2) By Minimum Inhibitory Concentration (MIC) one means the lowest concentration of antimicrobial that prevents visible growth of a microorganism (determined according to ISO standard 20776-1).
(§3) This finds an implication in combining many known antimicrobials together rather than discovering new chemical entities.

Candida albicans (CA) = test: as above; format: cell-based
Source text: as §1, §2, §3

Compound: alexidine
effect on growth (heat flow) ([1]; alexidine 1 mg/mL, FIG. 4): full growth inhibition | effect on growth (heat flow), compared with chlorhexidine ([1]; alexidine 0.25 and 0.5 mg/mL, FIG. 4): noticeably stronger effect | effect on growth (heat flow) ([2]; alexidine 4 mg/mL, FIG. 6): strong growth inhibition

Compound: [H]/N=C(\N/C(=N/[H])NCCCCCCNC(=N)NC(=N)Nc1ccc(Cl)cc1)Nc1ccc(Cl)cc1 [Chlorhexidine, chlorhexidine]
MIC of chlorhexdine (Streptococcus mutans): 0.9 to 4 µg/mL | MIC of chlorhexdine (Porphyromonas gingivalis): 0.9 µg/mL | solubility in water ([3]; chlorhexidine base): insoluble in water | MIC of chlorhexdine (Candida krusei): 150 µg/mL | effect on growth (heat flow) ([1]; chlorhexidine 1 mg/L, FIG. 3): strong shift in a metabolic activity | effect on growth (heat flow) ([1]; chlorhexidine 1 mg/mL, FIG. 4): strong shift in a metabolic activity | MIC of chlorhexdine [4]: 2 to 8 µg/mL | MIC of chlorhexdine ([4]; listed as chlorexhidrine): 1 to 8 µg/mL | MIC of chlorhexdine ([4]; listed as chlorhexidrine): 1 to 8 µg/mL | MIC of chlorhexdine (Candida tropicalis): 75 µg/mL | MIC of chlorhexdine [5]: 0.5 to 2 µg/mL | MIC of chlorhexdine (Fusobacterium nucleatum): 1.8 µg/mL

Compound: CCCSc1nc(N[C@@H]2C[C@H]2c2ccc(F)c(F)c2)c2nnn([C@@H]3C[C@H](OCCO)[C@@H](O)[C@H]3O)c2n1 [Triafluocyl, (1S,2S,3R,5S)-3-[7-[(1R,2S)-2-(3,4-difluorophenyl)cyclopropylamino]-5-(propylthio)-3H-[1,2,3]-triazolo[4,5-d]pyrimidin-3-yl]-5-(2-hydroxyethoxy)-1,2-cyclopentanediol]
solubility in an aqueous environment or aqueous medium [3]: generally not soluble | effect on growth (heat flow) ([1]; triafluocyl 1 mg/L, FIG. 3): doesn't affect the growth | effect on growth (heat flow) ([2]; triafluocyl 20 mg/L, FIG. 2): does not inhibit the growth

MIC Monotherapy (X) [6]: Not detected | MIC Monotherapy (X) (Candida albicans (CA)): Not detected
Compound: CCCSc1nc(N[C@@H]2C[C@H]2c2ccc(F)c(F)c2)c2nnn([C@@H]3C[C@H](O)[C@@H](O)[C@H]3O)c2n1 [Fluometacyl, (1S,2R,3S,4R)-4-[7-[[(1R,2S)-2-(3,4-Difluorophenyl)cyclopropyl]amino]-5-(propylthio)-3H-1,2,3-triazolo[4,5-d]pyrimidin-3-yl]-1,2,3-cyclopentanetriol]
solubility in an aqueous environment or aqueous medium [3]: generally not soluble
